Format in all cases: biochemical
In one assay the target is T1, PAD3 (Homo sapiens, UniProt Q9ULW8).
T1 construct: made in house
T1 sequence (Q9ULW8 1-664): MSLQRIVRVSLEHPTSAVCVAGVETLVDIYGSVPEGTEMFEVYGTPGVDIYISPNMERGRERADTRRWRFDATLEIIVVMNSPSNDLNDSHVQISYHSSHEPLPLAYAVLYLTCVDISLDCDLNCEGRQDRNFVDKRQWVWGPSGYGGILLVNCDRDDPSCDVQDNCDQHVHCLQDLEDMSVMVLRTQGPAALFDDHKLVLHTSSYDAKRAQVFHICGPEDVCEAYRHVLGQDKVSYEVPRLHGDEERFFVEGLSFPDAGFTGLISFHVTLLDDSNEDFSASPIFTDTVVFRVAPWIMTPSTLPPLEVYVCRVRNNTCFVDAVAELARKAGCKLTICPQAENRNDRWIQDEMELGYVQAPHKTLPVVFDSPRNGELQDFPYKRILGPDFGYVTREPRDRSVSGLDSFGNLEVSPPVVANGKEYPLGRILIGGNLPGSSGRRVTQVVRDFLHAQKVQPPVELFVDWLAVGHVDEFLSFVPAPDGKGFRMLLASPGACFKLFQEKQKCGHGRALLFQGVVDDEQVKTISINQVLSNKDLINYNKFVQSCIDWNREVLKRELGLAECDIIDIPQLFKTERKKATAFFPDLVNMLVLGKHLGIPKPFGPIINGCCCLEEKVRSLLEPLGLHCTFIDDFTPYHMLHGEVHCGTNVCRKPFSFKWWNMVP
The experiment in a line: Inactivation kinetics, PAD3. To be noted: for kinact/KI: a: single kobs determined; for Fold PAD3 Selectivity: kinact/KI relative to least inhibited isozyme (1.0). How it is done: (§1) Inactivation kinetic parameters were determined by incubating PAD1, 2, or 4 (2.0 μM) or PAD3 (5.0 μM) in a pre-warmed (10 min; 37° C.) inactivation mixture (50 mM HEPES, 10 mM CaCl2, and 2 mM DTT, pH 7.6, with a final volume of 60 μL) containing various concentrations of inhibitor. Aliquots were removed at various time points and added to a pre-warmed (10 min, 37° C.) reaction mixture (50 mM HEPES, 50 mM NaCl, 10 mM CaC2, 2 mM DTT, and 10 mM BAEE or 10 mM BAA in the case of PAD3; pH 7.6). After 15 min, reactions were quenched in liquid nitrogen and citrulline production quantified using the COLDER assay. […] In Vitro Labeling of PADs with “Clickable” Probes BB-F-Yne (5u), BB-Cl-Yne (5v) and BIFYne (5w)

Another assay addresses T2, PAD4 (Homo sapiens, UniProt Q9UM07).
T2 construct: made in house
The experiment in a line: Inactivation kinetics, PAD4. To be noted: for kinact/KI: a: single kobs determined, b: from a linear fit; for Fold PAD4 Selectivity: kinact/KI relative to least inhibited isozyme (1.0). How it is done: as §1

A further assay has as its target T3, PAD1 (Homo sapiens, UniProt Q9ULC6).
T3 construct: made in house
T3 sequence (Q9ULC6 1-663): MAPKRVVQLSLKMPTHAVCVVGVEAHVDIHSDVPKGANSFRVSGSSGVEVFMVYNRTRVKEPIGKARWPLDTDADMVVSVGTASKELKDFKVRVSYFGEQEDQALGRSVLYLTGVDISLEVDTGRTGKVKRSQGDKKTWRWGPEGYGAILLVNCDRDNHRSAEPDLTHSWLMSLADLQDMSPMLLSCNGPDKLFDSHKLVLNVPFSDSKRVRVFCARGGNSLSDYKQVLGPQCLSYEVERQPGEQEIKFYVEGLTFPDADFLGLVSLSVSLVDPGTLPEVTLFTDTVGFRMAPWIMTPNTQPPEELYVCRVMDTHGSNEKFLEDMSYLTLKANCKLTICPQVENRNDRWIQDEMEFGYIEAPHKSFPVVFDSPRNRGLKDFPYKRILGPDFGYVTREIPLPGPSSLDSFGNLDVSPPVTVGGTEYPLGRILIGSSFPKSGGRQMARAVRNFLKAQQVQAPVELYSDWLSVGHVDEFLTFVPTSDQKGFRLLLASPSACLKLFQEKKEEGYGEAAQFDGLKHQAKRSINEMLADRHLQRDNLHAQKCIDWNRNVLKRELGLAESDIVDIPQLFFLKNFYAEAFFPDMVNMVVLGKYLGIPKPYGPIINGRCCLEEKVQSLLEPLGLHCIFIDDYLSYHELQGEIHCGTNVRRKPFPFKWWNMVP
The assay can be described thus: Inactivation kinetics, PAD1. To be noted: for kinact/KI: a: single kobs determined, b: from a linear fit; for Fold PAD1 Selectivity: kinact/KI relative to least inhibited isozyme (1.0). The protocol:
as §1

A further assay deals with T4, PAD2 (Homo sapiens, UniProt Q9Y2J8).
T4 construct: made in house
The experiment in a line: Inactivation kinetics, PAD2. The settings on record: for kinact/KI: a: single kobs determined, b: from a linear fit, other footnotes: from kinact and KI; for Fold PAD2 Selectivity: kinact/KI relative to least inhibited isozyme (1.0). The protocol: as §1

T4 sequence (Q9Y2J8 whole entry): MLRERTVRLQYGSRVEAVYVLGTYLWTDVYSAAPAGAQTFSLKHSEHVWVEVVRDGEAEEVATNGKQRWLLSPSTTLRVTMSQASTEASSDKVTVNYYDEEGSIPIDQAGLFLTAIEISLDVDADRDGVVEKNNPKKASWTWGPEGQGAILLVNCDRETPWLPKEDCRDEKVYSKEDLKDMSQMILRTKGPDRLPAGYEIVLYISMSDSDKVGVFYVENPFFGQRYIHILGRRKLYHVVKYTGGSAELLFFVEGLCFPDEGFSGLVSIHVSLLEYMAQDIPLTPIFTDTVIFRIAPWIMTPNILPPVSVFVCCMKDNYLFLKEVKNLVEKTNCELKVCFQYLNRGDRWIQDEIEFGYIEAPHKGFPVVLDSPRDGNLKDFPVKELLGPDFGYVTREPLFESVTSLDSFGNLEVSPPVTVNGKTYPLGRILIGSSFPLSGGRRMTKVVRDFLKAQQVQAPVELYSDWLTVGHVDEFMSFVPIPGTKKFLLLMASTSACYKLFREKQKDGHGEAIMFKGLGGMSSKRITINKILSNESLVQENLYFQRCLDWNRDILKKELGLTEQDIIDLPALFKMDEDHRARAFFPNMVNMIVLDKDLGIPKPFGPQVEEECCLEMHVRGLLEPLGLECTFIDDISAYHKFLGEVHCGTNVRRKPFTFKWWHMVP
T2 sequence (Q9UM07 whole entry): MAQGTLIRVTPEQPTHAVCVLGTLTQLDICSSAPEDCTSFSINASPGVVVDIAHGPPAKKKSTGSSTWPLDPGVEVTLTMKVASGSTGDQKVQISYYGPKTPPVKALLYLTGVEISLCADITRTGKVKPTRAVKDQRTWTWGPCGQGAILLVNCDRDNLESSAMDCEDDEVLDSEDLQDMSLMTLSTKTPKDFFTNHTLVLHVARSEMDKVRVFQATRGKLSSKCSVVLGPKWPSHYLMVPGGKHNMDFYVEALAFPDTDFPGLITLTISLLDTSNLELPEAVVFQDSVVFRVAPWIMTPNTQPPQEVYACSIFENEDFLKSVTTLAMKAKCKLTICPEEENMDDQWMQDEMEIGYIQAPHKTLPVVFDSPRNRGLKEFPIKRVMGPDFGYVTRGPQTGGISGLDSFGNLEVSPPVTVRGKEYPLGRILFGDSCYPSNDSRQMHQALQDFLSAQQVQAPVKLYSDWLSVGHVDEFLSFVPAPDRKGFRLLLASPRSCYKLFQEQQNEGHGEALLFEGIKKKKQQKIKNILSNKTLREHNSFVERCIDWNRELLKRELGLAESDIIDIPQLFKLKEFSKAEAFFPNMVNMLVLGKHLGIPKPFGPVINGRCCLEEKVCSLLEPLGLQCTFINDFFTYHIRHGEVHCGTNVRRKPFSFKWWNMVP

Turning to `CCn1c([C@H](CCCNC(=N)CF)NC(=O)c2cccc3c2C(=O)NC3)nc2cc(OC)ccc21` [Compound 7u, N1-(3-oxoisoindoline)benzoyl-N5-(2-fluoro-1-iminoethyl)-1-(5-methoxy-1-ethyl-benzo[d]imidazol-2-yl)-L-ornithine], at PAD3, the kinact/KI is 33 M⁻¹ s⁻¹ and the “Fold PAD3 Selectivity” value is 2.5 fold. In addition, on PAD4, the kinact/KI is 13.2 M⁻¹ s⁻¹ and the “Fold PAD4 Selectivity” value is listed as 1.0 fold. Besides, on PAD1, the second-order inactivation constant (kinact/KI) was 316 M⁻¹ s⁻¹ and the “Fold PAD1 Selectivity” value is on record as 24 fold. At PAD2, the second-order inactivation constant (kinact/KI) is 658 M⁻¹ s⁻¹ and the “Fold PAD2 Selectivity” value turned out to be 50 fold.
As to `CCN1Cc2cccc(C(=O)N[C@@H](CCCNC(=N)CF)c3nc4c(OC)cccc4[nH]3)c2C1=O` [Compound 8i, N1-(2-ethyl-3-oxoisoindoline)benzoyl-N5-(2-fluoro-1-iminoethyl)-1-(4-methoxy-1H-benzo[d]imidazol-2-yl)-L-ornithine], at PAD3, the kinact/KI is 153 M⁻¹ s⁻¹ and the “Fold PAD3 Selectivity” value stood at 12 fold. Further, at PAD4, the kinact/KI was 12.5 M⁻¹ s⁻¹ and the “Fold PAD4 Selectivity” value turned out to be 1.0 fold. Further, on PAD1, the kinact/KI is 1340 M⁻¹ s⁻¹ and the “Fold PAD1 Selectivity” value was determined as 107 fold. Also, at PAD2, the kinact/KI is 396 M⁻¹ s⁻¹ and the “Fold PAD2 Selectivity” value came to 32 fold.
For the compound `CCN1Cc2cccc(C(=O)N[C@@H](CCCNC(=N)CCl)c3nc4cc(OC)ccc4n3C)c2C1=O` [Compound 8p, N1-(2-ethyl-3-oxoisoindoline)benzoyl-N5-(2-chloro-1-iminoethyl)-1-(5-methoxy-1-methyl-benzo[d]imidazol-2-yl)-L-ornithine], on PAD3, the kinact/KI was 296 M⁻¹ s⁻¹ and the “Fold PAD3 Selectivity” value was 9.3 fold. Also, at PAD4, the inactivation efficiency (kinact/KI) was 31.7 M⁻¹ s⁻¹ and the “Fold PAD4 Selectivity” value was determined as 1.0 fold. At PAD1, the kinact/KI was 1180 M⁻¹ s⁻¹ and the “Fold PAD1 Selectivity” value stood at 37 fold. At PAD2, the kinact/KI was 1020 M⁻¹ s⁻¹ and the “Fold PAD2 Selectivity” value was determined as 32 fold.
Turning to `COc1cccc2c1nc([C@H](CCCNC(=N)CCl)NC(=O)c1ccccc1C(=O)O)n2C` [Compound 6j], on PAD3, the kinact/KI is 160 M⁻¹ s⁻¹ and the “Fold PAD3 Selectivity” value worked out at 1.0 fold. Moreover, on PAD4, the inactivation efficiency (kinact/KI) was 235 M⁻¹ s⁻¹ and the “Fold PAD4 Selectivity” value is listed as 1.5 fold. In addition, at PAD1, the kinact/KI was 1120 M⁻¹ s⁻¹ and the “Fold PAD1 Selectivity” value is 7.0 fold. Besides, at PAD2, the kinact/KI is 308 M⁻¹ s⁻¹ and the “Fold PAD2 Selectivity” value stood at 1.9 fold.
With `COc1cccc2[nH]c([C@H](CCCNC(=N)CF)NC(=O)c3cccc4c3C(=O)NC4)nc12` [Compound 7i, N1-(3-oxoisoindoline)benzol-N5-(2-fluoro-1-iminoethyl)-1-(4-methoxy-1H-benzo[d]imidazol-2-yl)-L-omithine], at PAD3, the kinact/KI was 138 M⁻¹ s⁻¹ and the “Fold PAD3 Selectivity” value is 3.8 fold. In addition, on PAD4, the inactivation efficiency (kinact/KI) is 36.3 M⁻¹ s⁻¹ and the “Fold PAD4 Selectivity” value amounted to 1.0 fold. For the same compound, on PAD1, the kinact/KI was 1530 M⁻¹ s⁻¹ and the “Fold PAD1 Selectivity” value stood at 42 fold. Also, at PAD2, the second-order inactivation constant (kinact/KI) was 292 M⁻¹ s⁻¹ and the “Fold PAD2 Selectivity” value came out at 8.0 fold.
Regarding `CC(C)n1c([C@H](CCCNC(=N)CF)NC(=O)c2ccccc2C(=O)O)nc2ccccc21` [Compound 6g, N1-(2-Carboxyl)benzoyl-N5-(2-fluoro-1-iminoethyl)-1-(1-isopropyl-benzo[d]imidazol-2-yl)-L-ornithine], at PAD3, the kinact/KI was 33.5 M⁻¹ s⁻¹ and the “Fold PAD3 Selectivity” value is 4.4 fold. For the same compound, on PAD4, the kinact/KI is 7.67 M⁻¹ s⁻¹ and the “Fold PAD4 Selectivity” value turned out to be 1.0 fold. Moreover, on PAD1, the kinact/KI is 378 M⁻¹ s⁻¹ and the “Fold PAD1 Selectivity” value was found to be 49 fold. In addition, at PAD2, the kinact/KI is 412 M⁻¹ s⁻¹ and the “Fold PAD2 Selectivity” value is listed as 54 fold.
In the case of `CCN1Cc2cccc(C(=O)N[C@@H](CCCNC(=N)CCl)c3nc4ccccc4n3CC)c2C1=O` [Compound 8f, N1-(2-ethyl-3-oxoisoindoline)benzoyl-N5-(2-chloro-1-iminoethyl)-1-(1-ethyl-benzo[d]imidazol-2-yl)-L-ornithine], on PAD3, the kinact/KI was 114 M⁻¹ s⁻¹ and the “Fold PAD3 Selectivity” value was found to be 2.1 fold. For the same compound, on PAD4, the kinact/KI was 54.2 M⁻¹ s⁻¹ and the “Fold PAD4 Selectivity” value worked out at 1.0 fold. Further, on PAD1, the kinact/KI was 952 M⁻¹ s⁻¹ and the “Fold PAD1 Selectivity” value is 18 fold. Besides, at PAD2, the second-order inactivation constant (kinact/KI) is 752 M⁻¹ s⁻¹ and the “Fold PAD2 Selectivity” value was 14 fold.
In the case of `COc1cccc2c1nc([C@H](CCCNC(=N)CCl)NC(=O)c1cccc3c1C(=O)N(C(C)C)C3)n2C` [Compound 8r], on PAD3, the inactivation efficiency (kinact/KI) was 241 M⁻¹ s⁻¹ and the “Fold PAD3 Selectivity” value is 1.2 fold. Also, at PAD4, the second-order inactivation constant (kinact/KI) was 207 M⁻¹ s⁻¹ and the “Fold PAD4 Selectivity” value is 1.0 fold. Also, at PAD1, the inactivation efficiency (kinact/KI) is 732 M⁻¹ s⁻¹ and the “Fold PAD1 Selectivity” value is 3.5 fold. Moreover, at PAD2, the inactivation efficiency (kinact/KI) was 853 M⁻¹ s⁻¹ and the “Fold PAD2 Selectivity” value was found to be 4.1 fold.
In the case of `N=C(CF)NCCC[C@H](NC(=O)c1ccc2ccccc2c1)c1nc2ccccc2[nH]1` [Compound 5c], on PAD3, the kinact/KI was 46.7 M⁻¹ s⁻¹ and the “Fold PAD3 Selectivity” value was found to be 3.6 fold. Further, on PAD4, the kinact/KI is 108 M⁻¹ s⁻¹ and the “Fold PAD4 Selectivity” value worked out at 8.3 fold. Moreover, on PAD1, the inactivation efficiency (kinact/KI) was 25 M⁻¹ s⁻¹ and the “Fold PAD1 Selectivity” value is listed as 1.9 fold. Moreover, on PAD2, the kinact/KI was 13.1 M⁻¹ s⁻¹ and the “Fold PAD2 Selectivity” value is on record as 1.0 fold.
Take `CCN1Cc2cccc(C(=O)N[C@@H](CCCNC(=N)CCl)c3nc4c(OC)cccc4n3CC)c2C1=O` [Compound 8v, N1-(2-ethyl-3-oxoisoindoline)benzoyl-N5-(2-chloro-1-iminoethyl)-1-(4-methoxy-1-ethyl-benzo[d]imidazol-2-yl)-L-ornithine]: at PAD3, the kinact/KI is 99.5 M⁻¹ s⁻¹ and the “Fold PAD3 Selectivity” value is listed as 3.4 fold. At PAD4, the second-order inactivation constant (kinact/KI) was 29.2 M⁻¹ s⁻¹ and the “Fold PAD4 Selectivity” value is 1.0 fold. Besides, on PAD1, the kinact/KI is 907 M⁻¹ s⁻¹ and the “Fold PAD1 Selectivity” value is 31 fold. Besides, at PAD2, the kinact/KI was 776 M⁻¹ s⁻¹ and the “Fold PAD2 Selectivity” value was 27 fold.
On to `CCn1c([C@H](CCCNC(=N)CCl)NC(=O)c2cccc3c2C(=O)NC3)nc2c(OC)cccc21` [Compound 7r, N1-(3-oxoisoindoline)benzoyl-N5-(2-chloro-1-iminoethyl)-1-(4-methoxy-1-ethyl-benzo[d]imidazol-2-yl)-L-ornithine], for which, on PAD3, the inactivation efficiency (kinact/KI) was 103 M⁻¹ s⁻¹ and the “Fold PAD3 Selectivity” value was determined as 2.9 fold. On PAD4, the inactivation efficiency (kinact/KI) is 35.5 M⁻¹ s⁻¹ and the “Fold PAD4 Selectivity” value is 1.0 fold. Besides, at PAD1, the kinact/KI is 1790 M⁻¹ s⁻¹ and the “Fold PAD1 Selectivity” value amounted to 50 fold. Further, at PAD2, the inactivation efficiency (kinact/KI) was 657 M⁻¹ s⁻¹ and the “Fold PAD2 Selectivity” value was determined as 19 fold.
In the case of `CCn1c([C@H](CCCNC(=N)CF)NC(=O)c2cccc3c2C(=O)NC3)nc2c(OC)cccc21` [Compound 7q, N1-(3-oxoisoindoline)benzoyl-N5-(2-fluoro-1-iminoethyl)-1-(4-methoxy-1-ethyl-benzo[d]imidazol-2-yl)-L-ornithine], on PAD3, the kinact/KI was 26.7 M⁻¹ s⁻¹ and the “Fold PAD3 Selectivity” value stood at 1.0 fold. In addition, on PAD4, the second-order inactivation constant (kinact/KI) is 26.3 M⁻¹ s⁻¹ and the “Fold PAD4 Selectivity” value amounted to 1.0 fold. For the same compound, at PAD1, the inactivation efficiency (kinact/KI) is 998 M⁻¹ s⁻¹ and the “Fold PAD1 Selectivity” value amounted to 38 fold. Besides, on PAD2, the second-order inactivation constant (kinact/KI) is 845 M⁻¹ s⁻¹ and the “Fold PAD2 Selectivity” value is recorded as 32 fold.

As usually defined, the kinact/KI is the second-order rate constant of inactivation.

(Values after US11208386B2, “Inhibitors of protein arginine deiminases (PADs) and methods of preparation and use thereof” (University of Massachusetts, priority 2016, dated 2021).)
